{
  "source": "patent US11529343B2",
  "about": "“Compositions and methods for identifying and treating dystonia disorders” (DUKE UNIVERSITY, priority 2015, dated 2022)",
  "key": {"[1]": {"system": "striatal mGluR5 LTD", "test": "Long-term depression in cortico-striatal synapse, brain slices of heterozygous DYT1 knockin mice", "type": "cell-based", "conditions": "20 μM, versus vehicle", "experimental": "(§1) To directly test these predictions, whole-cell electrophysiology of striatal projection neurons was performed in acute brain slices to induce long-term depression in the presence of eIF2-alpha pathway-modulating drugs. Acute horizontal brain slices from the progeny of heterozygous ΔE Torsin1a knockin x homozygous Drd1a-tdTomato mice (age P15-21) were prepared largely as described in (Trusel et al., 2015, Cell Rep. 13, 1353-65). LTD was induced as in Trusel et al., 2015, with modifications.\n(§2) Heterozygous delGAG Torsin1a knockin mice (courtesy of Dr. W. Dauer, University of Michigan) were crossed with homozygous Drd1a-tdTomato mice (Jackson Labs) and the progeny was used at postnatal day 15-21 for experiments. […]\n(§3) Single slices were transferred to a recording chamber and superfused continuously with ACSF containing 50 μM picrotoxin at 32° C. and 3-4 mL/min. […] Evoked excitatory postsynaptic potentials (EPSPs) were recorded in the dorsolateral striatum, while stimulating every 30 seconds with a concentric bipolar electrode (FHC) in cortical layer V (see Trusel et al., Cell Reports, 2015). […] Baseline EPSPs were recorded for at least 10 min or until a stable baseline was reached. Data were acquired by pClamp v10 and analyzed using Clampfit v10.4, Origin v8.0, and GraphPad Prism v6."}, "[2]": {"system": "WT Torsin1a localization", "test": "Torsin1a localization assay in WT Torsin1a-expressing assay cell line", "type": "cell-based, human", "conditions": "for percentage of cells with punctate EGFP-Torsin1a signal, WT cell line: single concentration: MG132 10 μM, PBA 20 mM", "description": "To develop an assay capable of detecting conditions that correct a dystonia cellular phenotype, two human cell lines were generated that stably expressed EGFP-tagged human wild-type Torsin 1A, or delta-E Torsin1a, from a single cDNA copy integrated at a defined genomic site (FIG. 1, panel 1).\nTo limit variation in expression levels associated with random integration or transient expression, single copies of either WT or delta-E human TOR1A cDNAs with N-terminal EGFP fusions were inserted at the FRT site in Flp-In™ T-Rex™ 293 cells (Thermo Fisher Scientific #R780-07) via flippase recombinase-mediated cassette exchange according to the manufacturer's recommended protocols. This system includes an inducible expression feature (TetON) that avoids selective pressure for potential toxic effects of chronic expression of mutant proteins (FIG. 1, panel 1).\nFlp-In T-Rex 293 cells inducibly expressing either WT or delta-E Torsin1a were maintained in selective media [DMEM-HG (Thermo Fisher Scientific #11965)+1× GlutaMax (Thermo Fisher Scientific #35050-061)+75 μg/mL hygromycin (Thermo Fisher Scientific #10687-010)+15 μg/mL blasticidin S (Thermo Fisher Scientific #R210-01)+10% tetracycline screened FBS (Hyclone #SH30070.03T)+1% penicillin/streptomycin/amphotericin (Mediatech Inc. #30-004-C)]. The cells were maintained at 37° C./5% CO2. All experiments were performed on cells with fewer than 5 passages. HEK 293T cells (ATCC #CRL-3216) were maintained in HEK-T media [DMEM (Thermo Fisher #11995)+10% FBS (Hyclone #SH30070.03)+1× GlutaMAX+1% penicillin/streptomycin/amphotericin] at 37° C./5% CO2. Human dermal fibroblast lines were maintained in FGM media [MEM (Thermo Fisher #11095-080)+15% FBS (Hyclone #SH30070.03)+1% Non-Essential Amino Acids (Lonza #13-114E)+1% penicillin/streptomycin/amphotericin] at 37° C./5% CO2.\nThis approach provides control over expression levels, avoiding the wide variation typically seen with random genomic integration or transient expression approaches. […] The mutant phenotype was measured as the percentage of cells with one or more EGFP puncta using automated high-content imaging analysis (see infra).\nDevelopment and validation of the high-content image analysis and assay performance under high-throughput screening conditions is presented in FIG. 9. […] Automated exposure times for each plate were determined by setting a target saturation of 25% in channel 1 in wells containing tetracycline-induced delta-E cells. Detected cells were gated according to nuclear area, length-to-width ratio, and perimeter-to-area ratio. […] EGFP fluorescence (Ch2: excitation 488 nm; emission 509 nm) was used for puncta detection. Automated exposure times for each plate were determined by setting a target saturation of 35% in channel 2 in wells containing induced delta-E cells. […]"}, "[3]": {"system": "delta-E Torsin1a localization", "test": "Delta-E Torsin1a mislocalization assay (% cells with EGFP puncta, high-content imaging)", "type": "cell-based, human", "conditions": "single concentration: MG132 10 μM, PBA 20 mM"}, "[4]": {"system": "striatal mGluR5 LTD", "test": "Long-term depression in cortico-striatal synapse, acute brain slices of WT mice", "type": "cell-based", "conditions": "pre-incubation 5 nM, 1 hr", "experimental": "as §1, §2, §3"}},
  "note": "Peptide text beside a SMILES is read from it. * marks the point of attachment. Cbz = O=C(OCc1ccccc1)*",
  "data": [
    {"smiles": "O=C(/C=C/c1ccccc1)NC(NC(=S)Nc1ccc(Cl)cc1)C(Cl)(Cl)Cl", "note": "(centres unmarked) [Sal-003]", "values": [
      {"measurement": "effect on LTD in brain slices heterozygous for the DYT1 knockin mutation (delGAG)", "setting": "[1]", "result": "restored long-term depression"}
    ]},
    {"smiles": "O=C(O)CCCc1ccccc1", "note": "[PBA, phenylbutyric acid]", "values": [
      {"measurement": "percentage of cells with punctate EGFP-Torsin1a signal, WT cell line", "setting": "[2]", "result": "ameliorated the burden of cells with punctate pathology"},
      {"measurement": "percentage of cells with punctate EGFP-Torsin1a signal, delta-E cell line", "setting": "[3]", "result": "ameliorated the burden of cells with punctate pathology"}
    ]},
    {"smiles": "CC(C)C[C@@H](C=O)NC(=O)[C@H](CC(C)C)NC(=O)[C@H](CC(C)C)NC(=O)OCc1ccccc1", "note": "[MG132] (Cbz-Leu-Leu-Leu-aldehyde)", "values": [
      {"measurement": "percentage of cells with punctate EGFP-Torsin1a signal, WT cell line", "setting": "[2]", "result": "significantly increased"},
      {"measurement": "percentage of cells with punctate EGFP-Torsin1a signal, delta-E cell line", "setting": "[3]", "result": "significantly increased"}
    ]},
    {"smiles": "O=C(COc1ccc(Cl)cc1)NC1CCC(NC(=O)COc2ccc(Cl)cc2)CC1", "note": "(centres unmarked) [ISRIB]", "values": [
      {"measurement": "Torsin1a expression levels, in words", "setting": "[2]; WT cell line", "result": "without effects on Torsin1a expression levels"},
      {"measurement": "effect on WT Torsin1a localization (cells with puncta), in words", "setting": "[2]; dose response, WT cell line", "result": "dose-dependent increase in cells with punctate Torsin1a localization"},
      {"measurement": "effect on LTD in WT brain slices", "setting": "[4]", "result": "robustly inhibited LTD"}
    ]}
  ]
}
